The record followed here is patent US11680056B2, “MK2 inhibitors and uses thereof” (Xinthera, Inc., priority 2021, dated 2023).

One test deals with p38a/PRAK (Homo sapiens (Human), UniProt Q16539). The test is described as follows: p38a/PRAK biochemical assay: activation of PRAK by p38, FITC-HSP27 peptide phosphorylation (IMAP FP). The note with it: 10-point 1:3 dilution, top dose 300 μM; 60 pM active p38a, 1 nM inactive PRAK, 10 μM ATP, 2 h incubation; read-out: p38a/PRAK Enzyme pIC50 (converted). In outline:
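GST-tagged MK2 (F46–H400) and PRAK (M1–Q471), expressed in E. coli, activated by p38 and phosphorylate FITC-HSP27 peptide over 2 h with compound; readout by IMAP fluorescence polarisation (ex 485/em 528 nm). Ten-point 1:3 dilutions, top dose 1 μM for MK2 and 300 μM for PRAK. IC50 after vehicle normalisation; selectivity = IC50(PRAK)/IC50(MK2).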

A further test deals with p38a/MK2 (Homo sapiens (Human), UniProt P49137+Q16539). The test is described as follows: p38a/MK2 biochemical assay: activation of MK2 by p38, FITC-HSP27 peptide phosphorylation (IMAP FP). Conditions: 10-point 1:3 dilution, top dose 1 μM; 60 pM active p38a, 1 nM inactive MK2, 10 μM ATP, 2 h incubation; read-out: p38a/MK2 (1 μM) Enzyme pIC50 (converted).
Chain of p38a/MK2 (P49137 46-400): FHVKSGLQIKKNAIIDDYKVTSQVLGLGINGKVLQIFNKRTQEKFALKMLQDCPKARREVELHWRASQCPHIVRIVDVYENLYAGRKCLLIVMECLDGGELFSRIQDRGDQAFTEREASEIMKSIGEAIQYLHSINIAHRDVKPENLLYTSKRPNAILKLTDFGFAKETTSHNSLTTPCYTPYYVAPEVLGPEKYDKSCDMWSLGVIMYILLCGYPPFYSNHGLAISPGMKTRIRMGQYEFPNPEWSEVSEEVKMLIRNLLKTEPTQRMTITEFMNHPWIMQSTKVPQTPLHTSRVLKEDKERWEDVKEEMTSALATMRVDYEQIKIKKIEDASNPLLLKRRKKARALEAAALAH
Chain of p38a/MK2 (Q16539 whole entry): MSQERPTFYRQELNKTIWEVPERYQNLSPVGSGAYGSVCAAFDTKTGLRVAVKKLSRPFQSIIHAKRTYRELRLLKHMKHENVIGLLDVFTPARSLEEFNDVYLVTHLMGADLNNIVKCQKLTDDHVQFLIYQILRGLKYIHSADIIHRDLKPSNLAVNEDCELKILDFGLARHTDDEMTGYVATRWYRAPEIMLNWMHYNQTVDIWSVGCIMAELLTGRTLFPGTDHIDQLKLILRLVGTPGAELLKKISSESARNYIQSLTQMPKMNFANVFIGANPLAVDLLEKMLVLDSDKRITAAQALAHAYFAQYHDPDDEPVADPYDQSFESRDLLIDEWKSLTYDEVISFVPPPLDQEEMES

Chain of p38a/PRAK (Q16539 whole entry): as above

Take `Cc1cnc(-c2cccc(C(C)(O)CO)n2)cc1-n1c(C)cc(OCc2ncc(F)cc2F)c(Cl)c1=O` (single isomer, unassigned) [Example 36C, rel-3-chloro-4-[(3,5-difluoropyridin-2-yl)methoxy]-2′-[6-(1,2-dihydroxypropan-2-yl)pyridin-2-yl]-5′,6-dimethyl-[1,4′-bipyridin]-2-one]: the IC50 on p38a/PRAK was greater than 316000 nM; at p38a/MK2 it was greater than 1000 nM.
Consider `Cc1cnc(-n2ccc(C(C)(C)CO)n2)cc1-n1c(C)cc(OCc2ncc(F)cc2F)c(Cl)c1=O` (single isomer, unassigned) [Example 37A, rel-3-chloro-4-[(3,5-difluoropyridin-2-yl)methoxy]-2′-[3-(1-hydroxy-2-methylpropan-2-yl)pyrazol-1-yl]-5′,6-dimethyl-[1,4′-bipyridin]-2-one], for which the IC50 at p38a/PRAK is 2510 nM; on p38a/MK2, 5.01 nM.
`Cc1cnc(-n2ccc(C(C)(C)CO)n2)cc1-n1c(C)cc(OCc2ncc(F)cc2F)c(Cl)c1=O` (single isomer, unassigned) [Example 37B, rel-3-chloro-4-[(3,5-difluoropyridin-2-yl)methoxy]-2′-[3-(1-hydroxy-2-methylpropan-2-yl)pyrazol-1-yl]-5′,6-dimethyl-[1,4′-bipyridin]-2-one]: the results for the IC50 on p38a/PRAK and at p38a/MK2 were greater than 316000 nM and greater than 1000 nM, respectively.
Consider `Cc1cnc(-c2ccnc(C(C)(C)O)c2)cc1-n1c(C)cc(OCc2ncc(F)cc2F)c(Cl)c1=O` (single isomer, unassigned) [Example 38A, rel-3-chloro-4-[(3,5-difluoropyridin-2-yl)methoxy]-2′-[2-(2-hydroxypropan-2-yl)pyridin-4-yl]-5′,6-dimethyl-[1,4′-bipyridin]-2-one], for which the IC50 at p38a/PRAK was 31600 nM; on p38a/MK2, 100 nM.
Regarding `Cc1cnc(-c2ccnc(C(C)(C)O)c2)cc1-n1c(C)cc(OCc2ncc(F)cc2F)c(Cl)c1=O` (single isomer, unassigned) [Example 38B, rel-3-chloro-4-[(3,5-difluoropyridin-2-yl)methoxy]-2′-[2-(2-hydroxypropan-2-yl)pyridin-4-yl]-5′,6-dimethyl-[1,4′-bipyridin]-2-one], the IC50 on p38a/PRAK was greater than 316000 nM; on p38a/MK2, greater than 1000 nM.
As to `Cc1cnc(-c2ccnc(C3(O)CCOCC3)n2)cc1-n1c(C)cc(OCc2ncc(F)cc2F)c(Cl)c1=O` (single isomer, unassigned) [Example 39A, rel-3-chloro-4-((3,5-difluoropyridin-2-yl)methoxy)-2′-(2-(4-hydroxytetrahydro-2H-pyran-4-yl)pyrimidin-4-yl)-5′,6-dimethyl-2H-[1,4′-bipyridin]-2-one], the IC50 was 12600 nM at p38a/PRAK and 10 nM on p38a/MK2.
Take `Cc1cnc(-c2ccnc(C3(O)CCOCC3)n2)cc1-n1c(C)cc(OCc2ncc(F)cc2F)c(Cl)c1=O` (single isomer, unassigned) [Example 39B, rel-3-chloro-4-((3,5-difluoropyridin-2-yl)methoxy)-2′-(2-(4-hydroxytetrahydro-2H-pyran-4-yl)pyrimidin-4-yl)-5′,6-dimethyl-2H-[1,4′-bipyridin]-2-one]: the IC50 at p38a/PRAK is greater than 316000 nM; on p38a/MK2 it was greater than 1000 nM.
`Cc1cc(OCc2ncc(F)cc2F)c(Cl)c(=O)n1-c1cc(-c2ccnc(C(C)(C)O)n2)ncc1C1CC1` (single isomer, unassigned) [Example 40A, rel-3-chloro-5′-cyclopropyl-4-[(3,5-difluoropyridin-2-yl)methoxy]-2′-[2-(2-hydroxypropan-2-yl)pyrimidin-4-yl]-6-methyl-[1,4′-bipyridin]-2-one]: the IC50 on p38a/PRAK is 15800 nM; on p38a/MK2 it was 126 nM.
The corresponding values for `Cc1cc(OCc2ncc(F)cc2F)c(Cl)c(=O)n1-c1cc(-c2ccnc(C(C)(C)O)n2)ncc1C1CC1` (single isomer, unassigned) [Example 40B, rel-3-chloro-5′-cyclopropyl-4-[(3,5-difluoropyridin-2-yl)methoxy]-2′-[2-(2-hydroxypropan-2-yl)pyrimidin-4-yl]-6-methyl-[1,4′-bipyridin]-2-one] are greater than 316000 nM and greater than 1000 nM.
On to `Cc1cnc(-c2ccnc(C3(O)CCC3)n2)cc1-n1c(C)cc(OCc2ncc(F)cc2F)c(Cl)c1=O` (single isomer, unassigned) [Example 41A, rel-3-chloro-4-[(3,5-difluoropyridin-2-yl)methoxy]-2′-[2-(1-hydroxycyclobutyl)pyrimidin-4-yl]-5′,6-dimethyl-[1,4′-bipyridin]-2-one], for which the results for the IC50 at p38a/PRAK and on p38a/MK2 were 3160 nM and 5.01 nM, respectively.
With `Cc1cnc(-c2ccnc(C3(O)CCC3)n2)cc1-n1c(C)cc(OCc2ncc(F)cc2F)c(Cl)c1=O` (single isomer, unassigned) [Example 41B, rel-3-chloro-4-[(3,5-difluoropyridin-2-yl)methoxy]-2′-[2-(1-hydroxycyclobutyl)pyrimidin-4-yl]-5′,6-dimethyl-[1,4′-bipyridin]-2-one], the IC50 is greater than 316000 nM at p38a/PRAK and greater than 1000 nM at p38a/MK2.
Consider `Cc1cnc(-c2nc(C(C)(C)O)n(C)n2)cc1-n1c(C)cc(OCc2ncc(F)cc2F)c(Cl)c1=O` (single isomer, unassigned) [Example 42A, rel-3-chloro-4-[(3,5-difluoropyridin-2-yl)methoxy]-2′-[5-(2-hydroxypropan-2-yl)-1-methyl-1,2,4-triazol-3-yl]-5′,6-dimethyl-[1,4′-bipyridin]-2-one], for which the IC50 was 6310 nM on p38a/PRAK and 501 nM on p38a/MK2.
In the case of `Cc1cnc(-c2nc(C(C)(C)O)n(C)n2)cc1-n1c(C)cc(OCc2ncc(F)cc2F)c(Cl)c1=O` (single isomer, unassigned) [Example 42B, rel-3-chloro-4-[(3,5-difluoropyridin-2-yl)methoxy]-2′-[5-(2-hydroxypropan-2-yl)-1-methyl-1,2,4-triazol-3-yl]-5′,6-dimethyl-[1,4′-bipyridin]-2-one], the IC50 was greater than 316000 nM at p38a/PRAK and greater than 1000 nM at p38a/MK2.
On the same counts, the results for `Cc1cnc(-c2ccnc(N(C)CCO)n2)cc1-n1c(C)cc(OCc2ncc(F)cc2F)c(Cl)c1=O` (single isomer, unassigned) [Example 43A, rel-3-chloro-4-[(3,5-difluoropyridin-2-yl)methoxy]-2′-{2-[(2-hydroxyethyl)(methyl)amino]pyrimidin-4-yl}-5′,6-dimethyl-[1,4′-bipyridin]-2-one] are 2510 nM and 12.6 nM.
On the same counts, the results for `Cc1cnc(-c2ccnc(N(C)CCO)n2)cc1-n1c(C)cc(OCc2ncc(F)cc2F)c(Cl)c1=O` (single isomer, unassigned) [Example 43B, rel-3-chloro-4-[(3,5-difluoropyridin-2-yl)methoxy]-2′-{2-[(2-hydroxyethyl)(methyl)amino]pyrimidin-4-yl}-5′,6-dimethyl-[1,4′-bipyridin]-2-one] are greater than 316000 nM and greater than 1000 nM.
On to `Cc1cnc(-n2ccc(C(=O)NC3CC3)n2)cc1-n1c(C)cc(OCc2ncc(F)cc2F)c(Cl)c1=O` (single isomer, unassigned) [Example 44B, rel-1-{3-chloro-4-[(3,5-difluoropyridin-2-yl)methoxy]-5′,6-dimethyl-2-oxo-[1,4′-bipyridin]-2′-yl}-N-cyclopropylpyrazole-3-carboxamide], for which the IC50 at p38a/PRAK was greater than 316000 nM; on p38a/MK2 it was greater than 1000 nM.
`Cc1ncc(-c2ccnc(C(C)(C)O)n2)cc1-n1c(C)cc(OCc2ncc(F)cc2F)c(Cl)c1=O` (single isomer, unassigned) [Example 45A, rel-3-chloro-4-[(3,5-difluoropyridin-2-yl)methoxy]-5′-[2-(2-hydroxypropan-2-yl)pyrimidin-4-yl]-2′,6-dimethyl-[1,3′-bipyridin]-2-one]: the IC50 is greater than 316000 nM on p38a/PRAK and greater than 1000 nM on p38a/MK2.
As for `Cc1ncc(-c2ccnc(C(C)(C)O)n2)cc1-n1c(C)cc(OCc2ncc(F)cc2F)c(Cl)c1=O` (single isomer, unassigned) [Example 45B, rel-3-chloro-4-[(3,5-difluoropyridin-2-yl)methoxy]-5′-[2-(2-hydroxypropan-2-yl)pyrimidin-4-yl]-2′,6-dimethyl-[1,3′-bipyridin]-2-one], the IC50 was 39800 nM on p38a/PRAK and 501 nM on p38a/MK2.
Take `Cc1cnc(-n2ccc(CC(C)(C)O)n2)cc1-n1c(C)cc(OCc2ncc(F)cc2F)c(Cl)c1=O` (single isomer, unassigned) [Example 46A, rel-3-chloro-4-[(3,5-difluoropyridin-2-yl)methoxy]-2′-[3-(2-hydroxy-2-methylpropyl)pyrazol-1-yl]-5′,6-dimethyl-[1,4′-bipyridin]-2-one]: the IC50 on p38a/PRAK was 2510 nM; on p38a/MK2 it was 15.8 nM.
In the case of `Cc1cnc(-n2ccc(CC(C)(C)O)n2)cc1-n1c(C)cc(OCc2ncc(F)cc2F)c(Cl)c1=O` (single isomer, unassigned) [Example 46B, rel-3-chloro-4-[(3,5-difluoropyridin-2-yl)methoxy]-2′-[3-(2-hydroxy-2-methylpropyl)pyrazol-1-yl]-5′,6-dimethyl-[1,4′-bipyridin]-2-one], the results for the IC50 at p38a/PRAK and at p38a/MK2 were greater than 316000 nM and greater than 1000 nM, respectively.
As to `Cc1cnc(-n2ccc(C(C)(C)O)n2)cc1-n1c(C)cc(OCc2ncc(F)cc2Cl)c(Cl)c1=O` (single isomer, unassigned) [Example 47A, rel-3-chloro-4-[(3-chloro-5-fluoropyridin-2-yl)methoxy]-2′-[3-(2-hydroxypropan-2-yl)pyrazol-1-yl]-5′,6-dimethyl-[1,4′-bipyridin]-2-one], the results for the IC50 on p38a/PRAK and at p38a/MK2 were 5010 nM and 2 nM, respectively.
